Experimental data reported in patent US9962369B2, “Methods and compositions for transdermal delivery” (SPRAYABLE HOLDINGS, INC., priority 2014, dated 2018).

Key:
[1] = Solubility of AI compound in AI-helper composition (AI compound added until saturated); assay type: physicochemical; settings: water
Protocol: Solubility was tested by adding small amounts of AI compound to a set volume of an AI-helper composition at a certain temperature until the AI-helper composition was saturated with the AI compound, and measuring the amount of the AI compound added to calculate the solubility of the AI compound in the AI-helper composition at the temperature.

human skin tissue = experiment: Penetration rate of AI compound in AI-helper composition through human skin in vitro, modified Franz cells; assay type: in vitro ADME
Protocol: Penetration rate of AI compound in the AI-helper composition through human skin were measured in vitro by modified Franz cells. A Franz cell had two chambers: the top sample chamber and the bottom receiving chamber. The human skin tissue (450-500 μm thick) that separated the top and the receiving chambers was isolated from the anterior or posterior thigh areas.

clinical = settings: human, plasma, topical, 3 mg

COc1ccc2[nH]cc(CCNC(C)=O)c2c1 [Melatonin]
Solubility of melatonin ([1]; tryptophan isopropyl ester•HA 10% w/v, HA = 1/2H2SO4, 20° C.): >1.4% (w/v)
Solubility of melatonin ([1]; tryptophan isopropyl ester•HA 10% w/v, HA = 1/3H3PO4, 20° C.): >1.2% (w/v)
Solubility of melatonin ([1]; tryptophan isopropyl ester•HA 10% w/v, HA = 2/3H3PO4, 20° C.): >1.3% (w/v)
Solubility of melatonin ([1]; tryptophan isopropyl ester•HA 10% w/v, HA = Citric acid, 20° C.): >1.2% (w/v)
Solubility of melatonin ([1]; tryptophan isopropyl ester•HA 10% w/v, HA = H2SO4, 20° C.): >1.4% (w/v)
Solubility of melatonin ([1]; tryptophan isopropyl ester•HA 10% w/v, HA = HBr, 20° C.): >1.4% (w/v)
Solubility of melatonin ([1]; tryptophan isopropyl ester•HA 10% w/v, HA = HCl, 20° C.): >1.5% (w/v)
Solubility of melatonin ([1]; tryptophan isopropyl ester•HA 10% w/v, HA = HF, 20° C.): >1.5% (w/v)
Solubility of melatonin ([1]; tryptophan isopropyl ester•HA 10% w/v, HA = HI, 20° C.): >1.3% (w/v)
Solubility of melatonin ([1]; tryptophan isopropyl ester•HA 10% w/v, HA = acetic acid, 20° C.): >1.4% (w/v)
Solubility of melatonin ([1]; tryptophan isopropyl ester•HA 10% w/v, HA = benzoic acid, 20° C.): >1.3% (w/v)
Solubility of melatonin ([1]; tryptophan isopropyl ester•HA 10% w/v, HA = butyric acid, 20° C.): >1.3% (w/v)
Solubility of melatonin ([1]; tryptophan isopropyl ester•HA 10% w/v, HA = lactic acid, 20° C.): >1.4% (w/v)
Solubility of melatonin ([1]; tyrosine isopropyl ester•HA 10% w/v, HA = 1/2H2SO4, 20° C.): >1% (w/v)
Solubility of melatonin ([1]; tyrosine isopropyl ester•HA 10% w/v, HA = 1/3H3PO4, 20° C.): >1.0% (w/v)
Solubility of melatonin ([1]; tyrosine isopropyl ester•HA 10% w/v, HA = 2/3H3PO4, 20° C.): >1.1% (w/v)
Solubility of melatonin ([1]; tyrosine isopropyl ester•HA 10% w/v, HA = H2SO4, 20° C.): >1.2% (w/v)
Solubility of melatonin ([1]; tyrosine isopropyl ester•HA 10% w/v, HA = HBr, 20° C.): >1.2% (w/v)
Solubility of melatonin ([1]; tyrosine isopropyl ester•HA 10% w/v, HA = HCl, 20° C.): >1.3% (w/v)
Solubility of melatonin ([1]; tyrosine isopropyl ester•HA 10% w/v, HA = HF, 20° C.): >1.3% (w/v)
Solubility of melatonin ([1]; tyrosine isopropyl ester•HA 10% w/v, HA = HI, 20° C.): >1% (w/v)
Solubility of melatonin ([1]; tyrosine isopropyl ester•HA 10% w/v, HA = acetic acid, 20° C.): >1.1% (w/v)
Solubility of melatonin ([1]; tyrosine isopropyl ester•HA 10% w/v, HA = benzoic acid, 20° C.): >1% (w/v)
Solubility of melatonin ([1]; tyrosine isopropyl ester•HA 10% w/v, HA = butyric acid, 20° C.): >1% (w/v)
Solubility of melatonin ([1]; tyrosine isopropyl ester•HA 10% w/v, HA = citric acid, 20° C.): >1% (w/v)
Solubility of melatonin ([1]; tyrosine isopropyl ester•HA 10% w/v, HA = lactic acid, 20° C.): >1.1% (w/v)
Skin penetration rate of melatonin (human skin tissue; 1% melatonin (a suspension) without helper esters, 20° C.): 1.153 ± 0.111 μg/cm^2/h
Skin penetration rate of melatonin (human skin tissue; melatonin 1% w/v, Tryptophan isopropyl ester•HA 6% w/v, HA = 1/2H2SO4, water, 20° C.): 15.928 ± 1.476 μg/cm^2/h
Skin penetration rate of melatonin (human skin tissue; melatonin 1% w/v, Tryptophan isopropyl ester•HA 6% w/v, HA = 2/3H3PO4, water, 20° C.): 15.691 ± 1.571 μg/cm^2/h
Skin penetration rate of melatonin (human skin tissue; melatonin 1% w/v, Tryptophan isopropyl ester•HA 6% w/v, HA = Benzoic acid, water, 20° C.): 14.665 ± 1.589 μg/cm^2/h
Skin penetration rate of melatonin (human skin tissue; melatonin 1% w/v, Tryptophan isopropyl ester•HA 6% w/v, HA = Butyric acid, water, 20° C.): 15.378 ± 1.598 μg/cm^2/h
Skin penetration rate of melatonin (human skin tissue; melatonin 1% w/v, Tryptophan isopropyl ester•HA 6% w/v, HA = Citric acid, water, 20° C.): 15.371 ± 1.287 μg/cm^2/h
Skin penetration rate of melatonin (human skin tissue; melatonin 1% w/v, Tryptophan isopropyl ester•HA 6% w/v, HA = H2SO4, water, 20° C.): 16.780 ± 1.891 μg/cm^2/h
Skin penetration rate of melatonin (human skin tissue; melatonin 1% w/v, Tryptophan isopropyl ester•HA 6% w/v, HA = HBr, water, 20° C.): 15.971 ± 1.785 μg/cm^2/h
Skin penetration rate of melatonin (human skin tissue; melatonin 1% w/v, Tryptophan isopropyl ester•HA 6% w/v, HA = HCl, water, 20° C.): 16.678 ± 1.567 μg/cm^2/h
Skin penetration rate of melatonin (human skin tissue; melatonin 1% w/v, Tryptophan isopropyl ester•HA 6% w/v, HA = HF, water, 20° C.): 16.165 ± 1.167 μg/cm^2/h
Skin penetration rate of melatonin (human skin tissue; melatonin 1% w/v, Tryptophan isopropyl ester•HA 6% w/v, HA = HI, water, 20° C.): 14.467 ± 1.183 μg/cm^2/h
Skin penetration rate of melatonin (human skin tissue; melatonin 1% w/v, Tryptophan isopropyl ester•HA 6% w/v, HA = Lactic acid, water, 20° C.): 15.897 ± 1.109 μg/cm^2/h
Skin penetration rate of melatonin (human skin tissue; melatonin 1% w/v, Tyrosine isopropyl ester•HA 6% w/v, HA = 1/2H2SO4, water, 20° C.): 15.978 ± 2.136 μg/cm^2/h
Skin penetration rate of melatonin (human skin tissue; melatonin 1% w/v, Tyrosine isopropyl ester•HA 6% w/v, HA = 1/3H3PO4, water, 20° C.): 15.848 ± 1.782 μg/cm^2/h
Skin penetration rate of melatonin (human skin tissue; melatonin 1% w/v, Tyrosine isopropyl ester•HA 6% w/v, HA = 2/3H3PO4, water, 20° C.): 16.156 ± 3.124 μg/cm^2/h
Skin penetration rate of melatonin (human skin tissue; melatonin 1% w/v, Tyrosine isopropyl ester•HA 6% w/v, HA = Acetic acid, water, 20° C.): 15.983 ± 3.471 μg/cm^2/h
Skin penetration rate of melatonin (human skin tissue; melatonin 1% w/v, Tyrosine isopropyl ester•HA 6% w/v, HA = Benzoic acid, water, 20° C.): 17.002 ± 3.257 μg/cm^2/h
Skin penetration rate of melatonin (human skin tissue; melatonin 1% w/v, Tyrosine isopropyl ester•HA 6% w/v, HA = Butyric acid, water, 20° C.): 16.125 ± 1.972 μg/cm^2/h
Skin penetration rate of melatonin (human skin tissue; melatonin 1% w/v, Tyrosine isopropyl ester•HA 6% w/v, HA = Citric acid, water, 20° C.): 16.246 ± 2.319 μg/cm^2/h
Skin penetration rate of melatonin (human skin tissue; melatonin 1% w/v, Tyrosine isopropyl ester•HA 6% w/v, HA = H2SO4, water, 20° C.): 16.632 ± 1.357 μg/cm^2/h
Skin penetration rate of melatonin (human skin tissue; melatonin 1% w/v, Tyrosine isopropyl ester•HA 6% w/v, HA = HBr, water, 20° C.): 16.578 ± 2.117 μg/cm^2/h
Skin penetration rate of melatonin (human skin tissue; melatonin 1% w/v, Tyrosine isopropyl ester•HA 6% w/v, HA = HF, water, 20° C.): 15.765 ± 1.946 μg/cm^2/h
Skin penetration rate of melatonin (human skin tissue; melatonin 1% w/v, Tyrosine isopropyl ester•HA 6% w/v, HA = HI, water, 20° C.): 15.863 ± 1.970 μg/cm^2/h
Skin penetration rate of melatonin (human skin tissue; melatonin 1% w/v, Tyrosine isopropyl ester•HA 6% w/v, HA = Lactic acid, water, 20° C.): 16.029 ± 2.467 μg/cm^2/h
Skin penetration rate of melatonin (human skin tissue; no helper ester (None), melatonin 1 % w/v (suspension) in water, 20 °C): 1.153 ± 0.111 μg/cm^2/h
Skin penetration rate of AI compound (human skin tissue; no isoleucine ester (None), AI compound 0.5 % w/v (a suspension) in water, 20 °C): 1.147 ± 0.123 μg/cm^2/h
Skin penetration rate of AI compound (human skin tissue; no leucine ester (None), AI compound 0.5 % w/v (a suspension) in water, 20 °C): 1.147 ± 0.123 μg/cm^2/h
Skin penetration rate of melatonin (human skin tissue; no proline ester (None), melatonin 0.5 % w/v (suspension) in water, 20 °C): 1.147 ± 0.123 μg/cm^2/h
Skin penetration rate of AI compound (human skin tissue; no tryptophan ester (None), AI compound 1 % w/v (suspension) in water, 20 °C): 1.153 ± 0.111 μg/cm^2/h
Skin penetration rate of melatonin (human skin tissue; no tyrosine ester (None), melatonin 1 % w/v (suspension) in water, 20 °C): 1.153 ± 0.111 μg/cm^2/h
Skin penetration rate of AI compound (human skin tissue; with D-tryptophan ethyl ester hydrochloride 6 % w/v in water, AI compound 1 % w/v, 20 °C): 16.011 ± 1.511 μg/cm^2/h
Skin penetration rate of AI compound (human skin tissue; with D-tryptophan isopropyl ester hydrochloride 6 % w/v in water, AI compound 1 % w/v, 20 °C): 16.451 ± 1.473 μg/cm^2/h
Skin penetration rate of AI compound (human skin tissue; with D-tryptophan pentyl ester hydrochloride 6 % w/v in water, AI compound 1 % w/v, 20 °C): 15.003 ± 1.513 μg/cm^2/h
Skin penetration rate of AI compound (human skin tissue; with L-isoleucine ethyl ester hydrochloride 6 % w/v in water, AI compound 0.5 % w/v, 20 °C): 9.012 ± 0.148 μg/cm^2/h
Skin penetration rate of AI compound (human skin tissue; with L-isoleucine isopropyl ester hydrochloride 6 % w/v in water, AI compound 0.5 % w/v, 20 °C): 9.015 ± 0.161 μg/cm^2/h
Skin penetration rate of AI compound (human skin tissue; with L-isoleucine methyl ester hydrochloride 6 % w/v in water, AI compound 0.5 % w/v, 20 °C): 8.712 ± 0.168 μg/cm^2/h
Skin penetration rate of AI compound (human skin tissue; with L-isoleucine pentyl ester hydrochloride 6 % w/v in water, AI compound 0.5 % w/v, 20 °C): 8.219 ± 0.201 μg/cm^2/h
Skin penetration rate of AI compound (human skin tissue; with L-leucine ethyl ester hydrochloride 6 % w/v in water, AI compound 0.5 % w/v, 20 °C): 9.101 ± 0.153 μg/cm^2/h
Skin penetration rate of AI compound (human skin tissue; with L-leucine hexyl ester hydrochloride 6 % w/v in water, AI compound 0.5 % w/v, 20 °C): 8.019 ± 0.181 μg/cm^2/h
Skin penetration rate of AI compound (human skin tissue; with L-leucine isopropyl ester hydrochloride 6 % w/v in water, AI compound 0.5 % w/v, 20 °C): 9.371 ± 0.137 μg/cm^2/h
Skin penetration rate of AI compound (human skin tissue; with L-leucine methyl ester hydrochloride 6 % w/v in water, AI compound 0.5 % w/v, 20 °C): 9.058 ± 0.131 μg/cm^2/h
Skin penetration rate of AI compound (human skin tissue; with L-tryptophan butyl ester hydrochloride 6 % w/v in water, AI compound 1 % w/v, 20 °C): 15.676 ± 1.574 μg/cm^2/h
Skin penetration rate of AI compound (human skin tissue; with L-tryptophan isopropyl ester hydrochloride 6 % w/v in water, AI compound 1 % w/v, 20 °C): 16.678 ± 1.567 μg/cm^2/h
Skin penetration rate of AI compound (human skin tissue; with L-tryptophan pentyl ester hydrochloride 6 % w/v in water, AI compound 1 % w/v, 20 °C): 15.012 ± 1.315 μg/cm^2/h
concentration at 0 hr (clinical): 0 ng/mL
concentration at 1 h (clinical): 1.4 ng/mL
concentration at 1 hr (clinical): 1.6 ng/mL
concentration at 2 h (clinical): 1.5 ng/mL
concentration at 2 hr (clinical): 1.7 ng/mL
concentration at 4 h (clinical): 1.5 ng/mL
concentration at 4 hr (clinical): 1.8 ng/mL
concentration at 8 h (clinical): 1.4 ng/mL
concentration at 8 hr (clinical): 1.7 ng/mL
